Data as given in patent US20230009626A1 (ICHNOS SCIENCES S.A., priority 2018, published 2023).

Molecular target: HPK1 (MAP4K1) (Homo sapiens, UniProt Q92918)
Assay: FRET Assay for HPK1 (MAP4K1): one step binding assay, displacement of labeled tracer
Conditions: for inhibition at 1 µM: 1 μM compound; for inhibition at 1 µM / inhibition at 10 µM: FRET ratio 665/620, percent of control; for inhibition at 10 µM: 10 μM compound; for IC50: dose response curve, nonlinear regression
Procedure, shortened: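 Percent inhibition at 1.0 and 10.0 μM and IC50 by nonlinear regression were derived from loss of FRET signal versus control. The signal runs from Eu-anti-GST antibody (4 nM) bound to 10 nM HPK1 kinase to Alexa Fluor 647 Kinase Tracer 222 (20 nM), added after a 15-min on-ice compound pre-incubation. Binding then proceeded 1 h at room temperature in HEPES pH 7.5 buffer with 10 mM MgCl2, 1 mM EGTA, 0.01% Brij-35 and 3% DMSO.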

HPK1 (MAP4K1), sequence (Q92918 whole entry): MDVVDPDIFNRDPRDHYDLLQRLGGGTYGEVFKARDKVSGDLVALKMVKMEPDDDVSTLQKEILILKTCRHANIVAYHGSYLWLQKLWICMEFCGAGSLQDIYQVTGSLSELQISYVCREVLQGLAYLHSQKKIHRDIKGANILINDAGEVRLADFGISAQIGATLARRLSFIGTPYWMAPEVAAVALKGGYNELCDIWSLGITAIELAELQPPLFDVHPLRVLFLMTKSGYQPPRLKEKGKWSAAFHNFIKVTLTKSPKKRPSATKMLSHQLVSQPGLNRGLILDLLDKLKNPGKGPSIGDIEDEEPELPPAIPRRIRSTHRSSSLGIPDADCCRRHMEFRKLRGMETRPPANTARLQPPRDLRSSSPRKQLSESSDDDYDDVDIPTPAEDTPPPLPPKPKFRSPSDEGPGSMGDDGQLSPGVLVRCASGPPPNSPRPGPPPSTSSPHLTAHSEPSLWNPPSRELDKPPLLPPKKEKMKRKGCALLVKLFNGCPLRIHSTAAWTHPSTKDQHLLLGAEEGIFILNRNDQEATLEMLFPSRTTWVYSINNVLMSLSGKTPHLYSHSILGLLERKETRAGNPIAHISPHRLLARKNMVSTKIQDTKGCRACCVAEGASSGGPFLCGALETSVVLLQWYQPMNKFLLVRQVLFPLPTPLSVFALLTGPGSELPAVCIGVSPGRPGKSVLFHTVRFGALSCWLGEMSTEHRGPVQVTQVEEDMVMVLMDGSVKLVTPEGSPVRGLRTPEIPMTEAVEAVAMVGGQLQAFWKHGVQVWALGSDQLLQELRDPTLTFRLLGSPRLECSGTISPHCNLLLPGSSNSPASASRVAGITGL

C/C(Nc1ccc(N2CCOCC2)cn1)=C1/C(=O)Nc2cnc(-c3cnccc3C)cc21 [Example 107, (Z)-5-(4-Methylpyridin-3-yl)-3-(1-((5-morpholinopyridin-2-yl)amino)ethylidene)-1H-pyrrolo[2,3-c]pyridin-2(3H)-one]
inhibition at 1 µM: 72.3%
inhibition at 10 µM: 80%
IC50: < 50 nM

COc1cccc(F)c1-c1cc2c(cn1)NC(=O)/C2=C(/C)Nc1ccc(N2CCNCC2)cc1 [Example 108, (Z)-5-(2-Fluoro-6-methoxyphenyl)-3-(1-((4-(piperazin-1-yl)phenyl)amino)ethylidene)-1H-pyrrolo[2,3-c]pyridin-2(3H)-one]
inhibition at 1 µM: 74.2%
inhibition at 10 µM: 77%
IC50: < 50 nM

C/C(Nc1ccc(N(C)C)nc1)=C1/C(=O)Nc2cnc(-c3cnccc3C)cc21 [Example 109, (Z)-3-(1-((6-(Dimethylamino)pyridin-3-yl)amino)ethylidene)-5-(4-methylpyridin-3-yl)-1H-pyrrolo[2,3-c]pyridin-2(3H)-one]
inhibition at 1 µM: 72.4%
inhibition at 10 µM: 83.4%
IC50: < 50 nM

C/C(Nc1ccn(CCC(C)(C)O)n1)=C1/C(=O)Nc2cnc(-c3cnccc3C)cc21 [Example 111]
inhibition at 1 µM: 74.4%
inhibition at 10 µM: 74.3%
IC50: < 50 nM

CNC(=O)Cn1ccc(N/C(C)=C2\C(=O)Nc3cnc(-c4cnccc4C)cc32)n1 [Example 114]
inhibition at 1 µM: 73.3%
inhibition at 10 µM: 75.9%
IC50: < 50 nM

COc1cccc(F)c1-c1cc2c(cn1)NC(=O)/C2=C(/C)Nc1ccc(N(C)C)nc1 [Example 117, (Z)-3-(1-((6-(Dimethylamino)pyridin-3-yl)amino)ethylidene)-5-(2-fluoro-6-methoxyphenyl)-1H-pyrrolo[2,3-c]pyridin-2(3H)-one]
inhibition at 1 µM: 54.8%
inhibition at 10 µM: 56.4%

CNC(=O)C(C)(C)n1ccc(N/C(C)=C2\C(=O)Nc3cnc(-c4cnccc4C)cc32)n1 [Example 118, (Z)-N,2-dimethyl-2-(3-((1-(5-(4-methylpyridin-3-yl)-2-oxo-1H-pyrrolo[2,3-c]pyridin-3(2H)-ylidene)ethyl)amino)-1H-pyrazol-1-yl)propanamide]
inhibition at 1 µM: 78.4%
inhibition at 10 µM: 83.3%
IC50: < 50 nM

C/C(Nc1c(C)nn(C)c1C)=C1/C(=O)Nc2cnc(-c3cnccc3C)cc21 [Example 119, (Z)-5-(4-Methylpyridin-3-yl)-3-(1-((1,3,5-trimethyl-1H-pyrazol-4-yl)amino)ethylidene)-1H-pyrrolo[2,3-c]pyridin-2(3H)-one]
inhibition at 1 µM: 52.6%
inhibition at 10 µM: 67%
IC50: > 500 nM

CC(=O)N1CC(n2ccc(N/C(C)=C3\C(=O)Nc4cnc(-c5cnccc5C)cc43)n2)C1 [Example 120, (Z)-3-(1-((1-(1-Acetylazetidin-3-yl)-1H-pyrazol-3-yl)amino)ethylidene)-5-(4-methylpyridin-3-yl)-1H-pyrrolo[2,3-c]pyridin-2(3H)-one]
inhibition at 1 µM: 2.17%
inhibition at 10 µM: 49%

C/C(Nc1ccn(C)n1)=C1/C(=O)Nc2cnc(-c3c(C)cccc3F)cc21 [Example 121, (Z)-5-(2-Fluoro-6-methylphenyl)-3-(1-((1-methyl-1H-pyrazol-3-yl)amino)ethylidene)-1H-pyrrolo[2,3-c]pyridin-2(3H)-one]
inhibition at 1 µM: 78.9%
inhibition at 10 µM: 85.7%
IC50: < 50 nM

C/C(Nc1cc[nH]n1)=C1/C(=O)Nc2cnc(-c3cnccc3C)cc21 [Example 122, (Z)-3-(1-((1H-Pyrazol-3-yl)amino)ethylidene)-5-(4-methylpyridin-3-yl)-1H-pyrrolo[2,3-c]pyridin-2(3H)-one]
inhibition at 1 µM: 87.3%
inhibition at 10 µM: 92.6%
IC50: < 50 nM

C/C(Nc1ccc(C)nc1)=C1/C(=O)Nc2cnc(-c3cnccc3C)cc21 [Example 123, (Z)-5-(4-Methylpyridin-3-yl)-3-(1-((6-methylpyridin-3-yl)amino)ethylidene)-1H-pyrrolo[2,3-c]pyridin-2(3H)-one]
inhibition at 1 µM: 81.8%
inhibition at 10 µM: 88.2%
IC50: < 50 nM

COc1cccc(F)c1-c1cc2c(cn1)NC(=O)/C2=C(/C)Nc1ccc(N2CCNCC2)cn1 [Example 124, (Z)-5-(2-Fluoro-6-methoxyphenyl)-3-(1-((5-(piperazin-1-yl)pyridin-2-yl)amino)ethylidene)-1H-pyrrolo[2,3-c]pyridin-2(3H)-one]
inhibition at 1 µM: 79.6%
inhibition at 10 µM: 89.7%
IC50: < 50 nM

COc1cccc(F)c1-c1cc2c(cn1)NC(=O)/C2=C(/C)Nc1ccc(N2CCNCC2)nc1 [Example 125, (Z)-5-(2-Fluoro-6-methoxyphenyl)-3-(1-((6-(piperazin-1-yl)pyridin-3-yl)amino)ethylidene)-1H-pyrrolo[2,3-c]pyridin-2(3H)-one]
inhibition at 1 µM: 77.7%
inhibition at 10 µM: 84.2%
IC50: < 50 nM

C/C(Nc1cc2n(n1)CC(=O)N(C)C2)=C1/C(=O)Nc2cnc(-c3cnccc3C)cc21 [Example 126, (Z)-5-Methyl-2-((1-(5-(4-methylpyridin-3-yl)-2-oxo-1H-pyrrolo[2,3-c]pyridin-3(2H)-ylidene)ethyl)amino)-4,5-dihydropyrazolo[1,5-a]pyrazin-6(7H)-one]
inhibition at 1 µM: 82.4%
IC50: < 50 nM

C/C(Nc1cc2n(n1)CCN(C)C2=O)=C1/C(=O)Nc2cnc(-c3cnccc3C)cc21 [Example 127, (Z)-5-Methyl-2-((1-(5-(4-methylpyridin-3-yl)-2-oxo-1H-pyrrolo[2,3-c]pyridin-3(2H)-ylidene)ethyl)amino)-6,7-dihydropyrazolo[1,5-a]pyrazin-4(5H)-onc]
inhibition at 1 µM: 75.1%
inhibition at 10 µM: 81.5%
IC50: < 50 nM

C/C(Nc1ccn(CC(=O)N(C)C)n1)=C1/C(=O)Nc2cnc(-c3cnccc3C)cc21 [Example 128, (Z)-N,N-Dimethyl-2-(3-((1-(5-(4-methylpyridin-3-yl)-2-oxo-1H-pyrrolo[2,3-c]pyridin-3(2H)-ylidene)ethyl)amino)-1H-pyrazol-1-yl)acetamide]
inhibition at 1 µM: 79.2%
inhibition at 10 µM: 89.8%
IC50: < 50 nM

C/C(Nc1cc(C)n(C)n1)=C1/C(=O)Nc2cnc(-c3cnccc3C)cc21 [Example 129, (Z)-3-(1-((1,5-dimethyl-1H-pyrazol-3-yl)amino)ethylidene)-5-(4-methylpyridin-3-yl)-1H-pyrrolo[2,3-c]pyridin-2(3H)-one]
inhibition at 1 µM: 76.4%
inhibition at 10 µM: 82.2%
IC50: < 50 nM

CC(=O)N1CCC(n2ccc(N/C(C)=C3\C(=O)Nc4cnc(-c5cnccc5C)cc43)n2)CC1 [Example 130, (Z)-3-(1-((1-(1-Acetylpiperidin-4-yl)-1H-pyrazol-3-yl)amino)ethylidene)-5-(4-methylpyridin-3-yl)-1H-pyrrolo[2,3-c]pyridin-2(3H)-one]
inhibition at 1 µM: 79.4%
inhibition at 10 µM: 84.8%
IC50: < 50 nM

C/C(Nc1ccn(CC(=O)N2CCOCC2)n1)=C1/C(=O)Nc2cnc(-c3cnccc3C)cc21 [Example 131, (Z)-5-(4-Methylpyridin-3-yl)-3-(1-((1-(2-morpholino-2-oxoethyl)-1H-pyrazol-3-yl)amino)ethylidene)-1H-pyrrolo[2,3-c]pyridin-2(3H)-one]
inhibition at 1 µM: 82.2%
inhibition at 10 µM: 83.7%
IC50: < 50 nM
